Several values for one entry are separate records, joined by “and”; a condition that tells them apart may be missing. Equal values may be shown once. Read-outs that look alike come from different tables or passages of the source.
Experiments:
reactive oxygen species = format: cell-based, mouse
[1] = tested on: mitochondrial membrane potential; format: cell-based, mouse
cytochrome c = format: cell-based, mouse
[2] = tested on: cellular dehydrogenase activity
[3] = composite Z-score vs mock-treated (DMSO) wells, Conc 20 μM
[4] = composite Z-score vs DMSO, Conc 20 μM
[5] = Table 4, C2C12 myotubes, 48 h, composite Z-score
[6] = Table 4, C2C12 myotubes, 48 h, JC-1, composite Z-score

cytochrome c, sequence (P62897 whole entry): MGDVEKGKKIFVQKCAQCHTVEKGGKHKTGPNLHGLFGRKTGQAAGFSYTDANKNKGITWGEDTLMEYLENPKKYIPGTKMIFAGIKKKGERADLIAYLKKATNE

Compound | ROS (reactive oxygen species) | ΔΨm [1] | MTT [2] | Viability (C2C12 myotubes) | also measured
N[C@@H](C(=O)N[C@@H]1C(=O)N2C(C(=O)O)=C(Cl)CC[C@H]12)c1ccccc1 [loracarbef] | −0.236 | −0.229 | −0.158 | 0.317 | cyt c (cytochrome c): 0.622
O=C(O)CCCOc1ccc(Cl)cc1Cl [2,4-dichlorophenoxybutyric acid] | 0.758 | −0.479 | −1.368 | 0.337 | cyt c (cytochrome c): 0.711
CC1=C(CC(=O)O)c2cc(F)ccc2/C1=C\c1ccc([S+](C)[O-])cc1 (centres unmarked) [sulindac] |  |  |  | 0.777 | 
C[C@@H]1C[C@H]2[C@@H]3CCC4=CC(=O)C=C[C@]4(C)[C@@]3(F)[C@@H](O)C[C@]2(C)[C@@]1(O)C(=O)CO [dexamethasone] |  | 0.240 and 0.273 |  |  | 
CC(C)=CCCC1(C)C=Cc2c(O)c3c(c(CC=C(C)C)c2O1)OC12C(=CC4CC1C(C)(C)OC2(C/C=C(/C)C(=O)O)C4O)C3=O (centres unmarked) [dihydrogambogic acid] |  |  |  |  | ROS (reactive oxygen species; [3]): −2.239; ΔΨm [1, 3]: −3.431; cyt c (cytochrome c; [3]): −5.191; MTT [2, 3]: −6.208; Viability (C2C12 myotubes; [3]): −5.468
CC1=C(O)C(=O)C=C2C1=CC=C1[C@@]2(C)CC[C@@]2(C)[C@@H]3C[C@](C)(C(=O)O)CC[C@]3(C)CC[C@]12C [celastrol] |  |  |  |  | ROS (reactive oxygen species; [4]): −2.732; ΔΨm [1, 4]: −3.520; cyt c (cytochrome c; [4]): −5.979; MTT [2, 4]: −6.584; Viability (C2C12 myotubes; [4]): −4.797
C[C@@H](N)[C@@H](O)c1ccccc1 [1S,2R-phenylpropanolamine] | 0.721 | −0.137 | −1.507 | 0.296 | cyt c (cytochrome c; [4]): 0.280
CC(=O)N(CC(O)CO)c1c(I)c(C(=O)NCC(O)CO)c(I)c(C(=O)NCC(O)CO)c1I (centres unmarked) [iohexol] | 0.568 | −0.970 | −1.085 | −0.374 | cyt c (cytochrome c): 0.080
COC1=CC(=O)C(O)=C/C1=C\C=C\c1ccccc1 [obtusaquinone] |  |  |  |  | ROS (reactive oxygen species; [4]): −1.119; ΔΨm [1, 4]: −3.829; cyt c (cytochrome c; [4]): −5.381; MTT [2, 4]: −6.409; Viability (C2C12 myotubes; [4]): −4.658
C=C(C)/C=C1/C=CC(=O)C(C)=C1 [retusoquinone] |  |  |  |  | ROS (reactive oxygen species; [3]): −3.565; ΔΨm [1, 3]: −3.628; cyt c (cytochrome c; [3]): −5.303; MTT [2, 3]: −6.075; Viability (C2C12 myotubes; [3]): −5.371
CC1(C)C(=O)C=C[C@@]2(C)C1=C(O)C(=O)[C@]1(C)[C@@H]2CC[C@@]2(C)[C@H](c3ccoc3)C[C@H]3O[C@]321 [cedrelone] |  |  |  |  | ROS (reactive oxygen species; [3]): −3.982; ΔΨm [1, 3]: −3.459; cyt c (cytochrome c; [3]): −5.998; MTT [2, 3]: −6.617; Viability (C2C12 myotubes; [3]): −4.680
CCN(CC)C(=O)N[C@H]1C[C@@H]2c3cccc4[nH]cc(c34)C[C@H]2N(C)C1 [S(+)-terguride] |  | −0.585 |  |  | 
C=C(C)CCCC(C)CCOC(C)=O (centres unmarked) [rhodinyl acetate] | −0.024 | −0.631 | −0.833 | −0.197 | cyt c (cytochrome c): 0.137
C=C(C)[C@H]1Cc2c(ccc3c2O[C@@H]2COc4cc(OC)c(OC)cc4[C@@H]2C3=O)O1 [rotenone, reference compound] |  |  |  |  | MTT activity ([2]; assay control, FIG. 3-2): inhibited
Clc1ccccc1C(c1ccccc1)(c1ccccc1)n1ccnc1 [clotrimazole] | 2.521 |  |  | 0.099 | 
trisodium ethylenediamine tetracetate | −0.436 | 0.474 | −1.123 | −0.946 | 
(S)-(−)-atenolol | −0.554 | 0.396 | −0.552 | 0.012 | cyt c (cytochrome c): 0.030
CC [methylmethane] | 0.909 | −0.924 | −1.330 | −1.159 | cyt c (cytochrome c): 0.221
CCC(C)(C)C(=O)O[C@H]1C[C@@H](C)C=C2C=C[C@H](C)[C@H](CC[C@@H]3C[C@@H](O)CC(=O)O3)[C@H]21 [simvastatin, reference compound] |  |  |  |  | MTT activity ([2]; screen, FIG. 9a, in words): strong decreases
CC(=O)[C@H]1CC[C@H]2[C@@H]3CC=C4C[C@@H](O)CC[C@]4(C)[C@H]3CC[C@]12C [pregnenolone] |  | 0.542 |  |  | 
CC(=O)[O-].CC(=O)[O-].[Cd+2] [cadmium acetate] | −1.066 | −1.276 | −1.896 | −1.393 | cyt c (cytochrome c): −2.166
N#CC(C#N)=NNc1cccc(Cl)c1 [CCCP, carbonyl cyanide m-chlorophenylhydrazone, reference compound] |  |  |  |  | mitochondrial membrane potential ([1]; assay control, FIG. 3-3): depolarization
(−)-MK 801 |  | −0.786 |  |  | 
CC[C@H](C)C(=O)O[C@H]1C[C@@H](C)C=C2C=C[C@H](C)[C@H](CC[C@@H]3C[C@@H](O)CC(=O)O3)[C@H]21 [lovastatin, reference compound] |  |  |  |  | cyt c (composite Z-score vs DMSO) (cytochrome c): −1.628; MTT activity [2]: strong decreases

Compound | ROS (reactive oxygen species) | ΔΨm [1] | MTT [2] | Viability (C2C12 myotubes) | also measured
CC1(C)S[C@@H]2[C@H](NC(=O)Cc3ccccc3)C(=O)N2[C@H]1C(=O)O.CC1(C)S[C@@H]2[C@H](NC(=O)Cc3ccccc3)C(=O)N2[C@H]1C(=O)O.c1ccc(CNCCNCc2ccccc2)cc1 [benzathine benzylpenicillin] |  | 0.729 |  |  | 
C[C@@H]1CC[C@@]23CCC4(C)[C@@](C=CC5[C@@]6(C)CC[C@H](O)C(C)(C)C6CC[C@]54C)(OC2=O)C3[C@H]1C (some centres unmarked) [dehydro (11,12)ursolic acid lactone] | 0.385 | −0.429 | 0.402 | −0.003 | cyt c (cytochrome c; normalized composite Z-score vs mock-treated (DMSO) wells, Conc 20 μM): −0.175
CN(C)CCCN1c2ccccc2CCc2ccc(Cl)cc21 [clomipramine] | 0.466 |  |  |  | 
Oc1ccc([C@H]2Oc3cc(O)cc(O)c3C[C@H]2O)cc1 [epiafzelechin(2r,3r)(−), reference compound] |  |  |  |  | ROS (reactive oxygen species; [5]): 1.019; ΔΨm [1, 6]: −3.118; MTT [2, 5]: −0.486; Viability (C2C12 myotubes; [5]): −0.719
amyleine |  |  | −0.719 |  | 
pyrantel tartrate | 1.579 | −1.028 | −1.214 | 0.330 | cyt c (cytochrome c): −0.306
CCC1(c2ccc(N)cc2)CCC(=O)NC1=O (centres unmarked) [para-aminoglutethimide] |  | −0.416 |  |  | 
CC(=O)O[C@H]1CC[C@@]2(C)C(=CC[C@@H]3[C@@H]2CC[C@]2(C)C(=O)CC[C@@H]32)C1 [praesterone acetate] | 0.054 | 1.329 | 1.084 | 1.018 | cyt c (cytochrome c): −0.521
CC(C(=O)O)c1cccc(C(=O)c2ccccc2)c1 (centres unmarked) [ketoprofen] | 0.545 |  |  |  | 
C[C@@H]1[C@H](O)[C@@H](C)/C=C/C=C/C=C/C=C/C=C/C=C/C=C/[C@H](O[C@@H]2O[C@H](C)[C@@H](O)[C@H](N)[C@@H]2O)C[C@@H]2O[C@](O)(C[C@@H](O)C[C@@H](O)[C@H](O)CC[C@@H](O)C[C@@H](O)CC(=O)O[C@H]1C)C[C@H](O)[C@H]2C(=O)O [amphotericin B] | 0.005 | 0.308 | −0.790 | 1.210 | cyt c (cytochrome c): −0.982
COc1cc(Cc2cnc(N)nc2N)cc(OC)c1OC [trimethoprim] | 1.375 |  |  |  | 
L-methionine sulfoximine | 0.762 | −0.703 | −1.902 | −0.928 | cyt c (cytochrome c): −0.412
CC(C)n1c(/C=C/C(O)CC(O)CC(=O)O)c(-c2ccc(F)cc2)c2ccccc21 (centres unmarked) [fluvastatin, reference compound] |  |  |  |  | MTT activity ([2]; screen, FIG. 9a, in words): strong decreases
COC(=O)Nc1nc2ccc(SC(C)C)cc2[nH]1 [methiazole, reference compound] |  |  |  |  | ROS (reactive oxygen species; [5]): −2.515; ΔΨm [1, 6]: 0.040; MTT [2, 5]: −0.654; Viability (C2C12 myotubes; [5]): −0.683
C[C@]12CC[C@@H](O)C[C@H]1CC[C@@H]1[C@@H]2CC[C@]2(C)C(=O)CC[C@@H]12 [3-alpha-hydroxy-5-beta-androstan-17-one] | 1.400 | −1.010 | −1.534 |  | cyt c (cytochrome c): 0.285
C[C@@]1(O)CCOC(=O)C1 (racemic) [mevalonic-DL-acid lactone] |  | −0.183 |  |  | cyt c (cytochrome c): −0.252
CN[C@@H]1C[C@H]2O[C@@](C)([C@@H]1OC)n1c3ccccc3c3c4c(c5c6ccccc6n2c5c31)C(=O)NC4 [staurosporine, reference compound] |  |  |  |  | cell death (calcein) (C2C12 myotubes; assay control, FIG. 3-1): cell death in a dose dependent manner
CC([C@H](O)c1ccccc1)N(C)C (stereo partly drawn) [N-methyl (−)ephedrine] |  | −0.068 |  |  | 
COc1cc2c(cc1OC)[C@@H]1C(=O)c3ccc4c(c3O[C@@H]1CO2)C=CC(C)(C)O4 [deguelin(−), reference compound] |  |  |  |  | ROS (reactive oxygen species; [5]): 0.426; ΔΨm [1, 6]: 1.451; MTT [2, 5]: −4.052; Viability (C2C12 myotubes; [5]): −0.940
OCCN(CCO)c1nc(N2CCCCC2)c2nc(N(CCO)CCO)nc(N3CCCCC3)c2n1 [dipyridamole] |  | 0.298 and 0.474 |  | 2.069 and 1.042 | cyt c (cytochrome c): 0.377 and 0.276
CS(=O)(=O)Nc1ccc([N+](=O)[O-])cc1Oc1ccccc1 [nimesulide] | 1.468 and 1.174 |  |  |  | 
methyl benzethonium chloride | −1.501 | 0.480 | −4.304 | −2.690 | 
CC(C)[N+]1(C)[C@@H]2CC[C@H]1C[C@@H](OC(=O)C(CO)c1ccccc1)C2 (some centres unmarked) [ipratropium] | 1.245 |  |  |  | 
CC1(C)S[C@@H]2[C@H](NC(=O)[C@H](N)c3ccc(O)cc3)C(=O)N2[C@H]1C(=O)O [amoxicillin] | 1.061 |  |  |  | 

Reference: patent US20090143279A1 (priority 2007, published 2009)
